Measured values: ChEMBL document CHEMBL1201862, “PubChem BioAssay data set” (2004)
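Test compounds were applied to cells in 96-well plates for 48 hours at 5 doses. At the GI50, growth is halved.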 Calls of active or inactive are those of the source. Cut-off read from the data, not from the text of the source: active = GI50 up to about 1.1 µM and inactive = higher.

Tests used:
Assay in all cases: DTP human tumour cell line panel, 48 h
[1] = system: DU-145
[2] = system: UO-31
[3] = system: MDA-MB-435
[4] = system: HL-60
[5] = system: U-251
[6] = system: K562
[7] = system: SK-MEL-28
[8] = system: NCI/ADR-RES
[9] = system: HCC 2998
[10] = system: A549
[11] = system: IGROV-1
[12] = system: UACC-257
[13] = system: CAKI-1
[14] = system: Hs-578T
[15] = system: OVCAR-3
[16] = system: A498
[17] = system: MDA-MB-231
[18] = system: T47D
[19] = system: HCT-116
[20] = system: COLO 205
[21] = system: HT-29
[22] = system: SR
[23] = system: SK-OV-3
[24] = system: OVCAR-5
[25] = system: SF-268
[26] = system: KM12
[27] = system: OVCAR-4
[28] = system: BT-549
[29] = system: RXF 393
[30] = system: PC-3
[31] = system: MCF7
[32] = system: OVCAR-8
[33] = system: SN12C
[34] = system: 786-0
[35] = system: NCI-H460
[36] = system: EKVX
[37] = system: MOLT-4
[38] = system: RPMI-8226
[39] = system: M14
[40] = system: HOP-92
[41] = system: MDA-N
[42] = system: HCT-15
[43] = system: ACHN
[44] = system: UACC-62
[45] = system: HOP-62
[46] = system: SK-MEL-2
[47] = system: CCRF-CEM
[48] = system: NCI-H23
[49] = system: SNB-75
[50] = system: TK-10
[51] = system: SF-539
[52] = system: SF-295
[53] = system: SW-620
[54] = system: SK-MEL-5
[55] = system: NCI-H226
[56] = system: NCI-H522
[57] = system: LOX IMVI
[58] = system: Malme-3M
[59] = system: SNB-19
[60] = system: SNB-78
[61] = system: DMS-114

## COc1cccc(/N=C/c2cc(OC)c(OC)c(OC)c2)c1
[1]
  GI50: > 100 µM (inactive)
[2]
  GI50: > 23 µM (inactive)
[3]
  GI50: 18.8 µM (inactive)
[4]
  GI50: > 100 µM (inactive)
[5]
  GI50: > 100 µM (inactive)
[6]
  GI50: 3.58 µM (inactive)
[7]
  GI50: > 75.7 µM (inactive)
[8]
  GI50: > 100 µM (inactive)
[9]
  GI50: > 88.9 µM (inactive)
[10]
  GI50: > 100 µM (inactive)
[11]
  GI50: > 100 µM (inactive)
[12]
  GI50: > 100 µM (inactive)
[13]
  GI50: > 100 µM (inactive)
[14]
  GI50: > 100 µM (inactive)
[15]
  GI50: 1 µM (active)
[16]
  GI50: > 100 µM (inactive)
[17]
  GI50: > 100 µM (inactive)
[18]
  GI50: 64.3 µM (inactive)
[19]
  GI50: > 100 µM (inactive)
[20]
  GI50: 17.8 µM (inactive)
[21]
  GI50: 91.2 µM (inactive)
[22]
  GI50: > 23.1 µM (inactive)
[23]
  GI50: > 100 µM (inactive)
[24]
  GI50: > 53.2 µM (inactive)
[25]
  GI50: > 100 µM (inactive)
[26]
  GI50: 33.2 µM (inactive)
[27]
  GI50: > 79.6 µM (inactive)
[28]
  GI50: 72.6 µM (inactive)
[29]
  GI50: 78.7 µM (inactive)
[30]
  GI50: > 100 µM (inactive)
[31]
  GI50: 56.9 µM (inactive)
[32]
  GI50: > 100 µM (inactive)
[33]
  GI50: > 100 µM (inactive)
[34]
  GI50: > 100 µM (inactive)
[35]
  GI50: 64.9 µM (inactive)
[36]
  GI50: > 86.7 µM (inactive)
[37]
  GI50: > 72.1 µM (inactive)
[38]
  GI50: > 100 µM (inactive)
[39]
  GI50: 36.2 µM (inactive)
[40]
  GI50: > 100 µM (inactive)
[41]
  GI50: 25.8 µM (inactive)
[42]
  GI50: 56.1 µM
[43]
  GI50: 20.8 µM (inactive)
[44]
  GI50: 1.75 µM (inactive)
[45]
  GI50: 94 µM (inactive)
[46]
  GI50: > 85.1 µM (inactive)
[47]
  GI50: > 100 µM (inactive)
[48]
  GI50: > 100 µM (inactive)
[49]
  GI50: > 100 µM (inactive)
[50]
  GI50: > 100 µM (inactive)
[51]
  GI50: > 100 µM (inactive)
[52]
  GI50: 69.8 µM (inactive)
[53]
  GI50: > 100 µM (inactive)
[54]
  GI50: 16.8 µM (inactive)
[55]
  GI50: > 54.8 µM (inactive)
[56]
  GI50: > 100 µM (inactive)
[57]
  GI50: > 37.2 µM (inactive)
[58]
  GI50: > 100 µM (inactive)

## NN=C(CC(O)(C(F)(F)Cl)C(F)(F)Cl)CC(O)(C(F)(F)Cl)C(F)(F)Cl
[1]
  GI50: > 10 µM (inactive)
[59]
  GI50: > 10 µM (inactive)
[3]
  GI50: > 10 µM (inactive)
[4]
  GI50: > 10 µM (inactive)
[5]
  GI50: > 10 µM (inactive)
[6]
  GI50: > 10 µM (inactive)
[7]
  GI50: > 10 µM (inactive)
[8]
  GI50: > 10 µM (inactive)
[9]
  GI50: > 10 µM (inactive)
[10]
  GI50: > 10 µM (inactive)
[11]
  GI50: > 10 µM (inactive)
[12]
  GI50: > 10 µM (inactive)
[13]
  GI50: > 10 µM (inactive)
[14]
  GI50: > 10 µM (inactive)
[15]
  GI50: > 10 µM (inactive)
[16]
  GI50: > 10 µM (inactive)
[17]
  GI50: > 10 µM (inactive)
[18]
  GI50: > 10 µM (inactive)
[19]
  GI50: > 10 µM (inactive)
[20]
  GI50: > 10 µM (inactive)
[21]
  GI50: > 10 µM (inactive)
[22]
  GI50: > 10 µM (inactive)
[23]
  GI50: > 10 µM (inactive)
[24]
  GI50: > 10 µM (inactive)
[25]
  GI50: > 10 µM (inactive)
[26]
  GI50: > 10 µM (inactive)
[27]
  GI50: > 10 µM (inactive)
[28]
  GI50: > 10 µM (inactive)
[29]
  GI50: > 10 µM (inactive)
[30]
  GI50: > 10 µM (inactive)
[31]
  GI50: > 10 µM (inactive)
[32]
  GI50: > 10 µM (inactive)
[33]
  GI50: > 10 µM (inactive)
[34]
  GI50: > 10 µM (inactive)
[35]
  GI50: > 10 µM (inactive)
[36]
  GI50: > 10 µM (inactive)
[37]
  GI50: > 10 µM (inactive)
[38]
  GI50: > 10 µM (inactive)
[39]
  GI50: > 10 µM (inactive)
[40]
  GI50: > 10 µM (inactive)
[41]
  GI50: > 10 µM (inactive)
[42]
  GI50: > 10 µM
[43]
  GI50: > 10 µM (inactive)
[44]
  GI50: > 10 µM (inactive)
[45]
  GI50: > 10 µM (inactive)
[46]
  GI50: > 10 µM (inactive)
[47]
  GI50: > 10 µM (inactive)
[48]
  GI50: > 10 µM (inactive)
[49]
  GI50: > 10 µM (inactive)
[50]
  GI50: > 10 µM (inactive)
[51]
  GI50: > 10 µM (inactive)
[52]
  GI50: > 10 µM (inactive)
[53]
  GI50: > 10 µM (inactive)
[54]
  GI50: > 10 µM (inactive)
[55]
  GI50: > 10 µM (inactive)
[56]
  GI50: > 10 µM (inactive)
[57]
  GI50: > 10 µM (inactive)
[58]
  GI50: > 10 µM (inactive)

## COc1cc(C)cc2c1[nH]c1ccccc12 [MURRAYAFOLINE A]
[60]
  GI50: > 25 µM (inactive)
[59]
  GI50: > 25 µM (inactive)
[6]
  GI50: > 25 µM (inactive)
[10]
  GI50: 11.5 µM (inactive)
[15]
  GI50: 8.91 µM (inactive)
[24]
  GI50: 24.5 µM (inactive)
[27]
  GI50: > 25 µM (inactive)
[29]
  GI50: 9.16 µM (inactive)
[32]
  GI50: 7.33 µM (inactive)
[38]
  GI50: 8.65 µM (inactive)
[45]
  GI50: 6.53 µM (inactive)
[50]
  GI50: > 25 µM (inactive)
[61]
  GI50: 9.64 µM (inactive)
